Like-named read-outs stand apart in the source and are kept apart here.
Key:
PARG = PARG (Homo sapiens, UniProt Q86W56); assay: Biochemical assay (PARG, TFMU-ADPr substrate)
HCC1806 = assay: Cell viability assay (CellTiter-Glo); type: cell-based, Human; conditions: HCC1806, 7 days, CellTiter-Glo, read-out: IC50 (nM) in cell viability assay
[1] = 4 nM PARG, 66.2 uM TFMU-ADPr, 3 min at room temperature

Sequence of PARG (Q86W56 whole entry): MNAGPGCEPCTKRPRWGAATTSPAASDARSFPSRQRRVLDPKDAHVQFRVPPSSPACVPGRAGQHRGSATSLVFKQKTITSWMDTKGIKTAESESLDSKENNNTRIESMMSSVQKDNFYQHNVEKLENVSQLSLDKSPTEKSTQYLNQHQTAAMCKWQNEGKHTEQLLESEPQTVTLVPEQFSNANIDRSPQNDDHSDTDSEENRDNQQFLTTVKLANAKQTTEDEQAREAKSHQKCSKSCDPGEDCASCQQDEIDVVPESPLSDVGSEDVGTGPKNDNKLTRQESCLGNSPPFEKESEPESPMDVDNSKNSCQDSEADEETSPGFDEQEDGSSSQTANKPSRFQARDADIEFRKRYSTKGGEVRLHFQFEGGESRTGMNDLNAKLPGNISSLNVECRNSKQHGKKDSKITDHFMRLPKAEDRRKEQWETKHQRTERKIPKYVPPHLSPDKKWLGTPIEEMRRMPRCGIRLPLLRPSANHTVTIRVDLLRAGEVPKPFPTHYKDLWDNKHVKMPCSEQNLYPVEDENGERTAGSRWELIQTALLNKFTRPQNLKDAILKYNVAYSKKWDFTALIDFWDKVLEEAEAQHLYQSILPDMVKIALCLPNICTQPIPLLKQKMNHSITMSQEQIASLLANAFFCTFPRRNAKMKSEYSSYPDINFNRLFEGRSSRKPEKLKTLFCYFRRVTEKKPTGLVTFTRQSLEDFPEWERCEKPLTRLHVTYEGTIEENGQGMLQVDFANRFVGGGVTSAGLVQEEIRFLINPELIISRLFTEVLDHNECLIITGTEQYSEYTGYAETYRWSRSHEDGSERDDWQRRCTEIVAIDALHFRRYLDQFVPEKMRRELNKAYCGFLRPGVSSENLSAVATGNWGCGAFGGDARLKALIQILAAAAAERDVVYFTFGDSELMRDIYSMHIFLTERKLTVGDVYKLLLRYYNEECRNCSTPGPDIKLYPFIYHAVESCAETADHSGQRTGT

Compound	IC50 (PARG; PARG, TFMU-ADPr substrate) [nM]	IC50 (HCC1806; Homo sapiens, HCC1806, 168 h) [nM]	IC50 (PARG; [1]) [nM]	IC50 (HCC1806) [nM]
CC1(C(=O)N2CCN(c3cc(S(=O)(=O)NC4(C#N)CC4)cn4c(-c5nnc(C(F)(F)F)s5)ncc34)CC2)COC1 [Example 299, N-(1-cyanocyclopropyl)-8-(4-(3-methyloxetane-3-carbonyl)piperazin-1-yl)-3-(5-(trifluoromethyl)-1,3,4-thiadiazol-2-yl)imidazo[1,5-a]pyridine-6-sulfonamide]	24	1030		
CC1(NS(=O)(=O)c2cc(N3CCN(C(=O)C4(C)CNC4)CC3)c3cnc(-c4nnc(C(F)(F)F)s4)n3c2)CC1 [Example 313, 8-(4-(3-methylazetidine-3-carbonyl)piperazin-1-yl)-N-(1-methylcyclopropyl)-3-(5-(trifluoromethyl)-1,3,4-thiadiazol-2-yl)imidazo[1,5-a]pyridine-6-sulfonamide]	1.64	2050		
CC(C)OC1(C(=O)N2CCN(c3cc(S(=O)(=O)NC4(C)CC4)cn4c(-c5nnc(C(F)(F)F)s5)ncc34)CC2)CC1 [Example 202, 8-(4-(1-isopropoxycyclopropane-1-carbonyl)piperazin-1-yl)-N-(1-methylcyclopropyl)-3-(5-(trifluoromethyl)-1,3,4-thiadiazol-2-yl)imidazo[1,5-a]pyridine-6-sulfonamide]	1.16	133		
N#CC1(NS(=O)(=O)c2cc(N3CCN(C4COC4)CC3)c3cnc(-c4nnc(C(F)F)s4)n3c2)CC1 [Example 147, N-(1-cyanocyclopropyl)-3-(5-(difluoromethyl)-1,3,4-thiadiazol-2-yl)-8-(4-(oxetan-3-yl)piperazin-1-yl)imidazo[1,5-a]pyridine-6-sulfonamide]	34.1	5000 to 30000	< 100	9940
CC1(NS(=O)(=O)c2cc(N3CCN(C(=O)C4(OCC(=O)O)CC4)CC3)c3cnc(-c4nnc(C(F)F)s4)n3c2)CC1 [Example 382, 2-(1-(4-(3-(5-(difluoromethyl)-1,3,4-thiadiazol-2-yl)-6-(N-(1-methylcyclopropyl)sulfamoyl)imidazo[1,5-a]pyridin-8-yl)piperazine-1-carbonyl)cyclopropoxy)acetic acid]	6.55	828		
CC(=O)N1CCN(c2cc(S(=O)(=O)NC3(C#N)CC3)cn3c(-c4nnc(C(F)(F)F)s4)ncc23)C[C@H]1C [Example 216, (R)-8-(4-acetyl-3-methylpiperazin-1-yl)-N-(1-cyanocyclopropyl)-3-(5-(trifluoromethyl)-1,3,4-thiadiazol-2-yl)imidazo[1,5-a]pyridine-6-sulfonamide]	31.6	2340		
COC[C@H]1CN(c2cc(S(=O)(=O)NC3(C)COC3)cn3c(-c4nnc(C(F)F)s4)ncc23)C[C@H](C)N1 [Example 404, 3-(5-(difluoromethyl)-1,3,4-thiadiazol-2-yl)-8-((3R,5S)-3-(methoxymethyl)-5-methylpiperazin-1-yl)-N-(3-methyloxetan-3-yl)imidazo[1,5-a]pyridine-6-sulfonamide]	1.09	27		
O=S(=O)(NC1(CF)COC1)c1cc(N2CCC3(CC2)COC3)c2cnc(-c3nnc(C(F)(F)F)s3)n2c1 [Example 176, N-(3-(fluoromethyl)oxetan-3-yl)-8-(2-oxa-7-azaspiro[3.5]nonan-7-yl)-3-(5-(trifluoromethyl)-1,3,4-thiadiazol-2-yl)imidazo[1,5-a]pyridine-6-sulfonamide]	4.37	1340		
N#CC1(NS(=O)(=O)c2cc(C3CCN(C(=O)C4(O)CC4)CC3)c3cnc(-c4nnc(C(F)(F)F)s4)n3c2)CC1 [Example 372, N-(1-cyanocyclopropyl)-8-(1-(1-hydroxycyclopropane-1-carbonyl)piperidin-4-yl)-3-(5-(trifluoromethyl)-1,3,4-thiadiazol-2-yl)imidazo[1,5-a]pyridine-6-sulfonamide]	3.8	580		
CC1(NS(=O)(=O)c2cc(N3CCN[C@H](CF)C3)c3cnc(-c4nnc(C(F)F)s4)n3c2)COC1 [Example 191, (S)-3-(5-(difluoromethyl)-1,3,4-thiadiazol-2-yl)-8-(3-(fluoromethyl)piperazin-1-yl)-N-(3-methyloxetan-3-yl)imidazo[1,5-a]pyridine-6-sulfonamide]	32	723		
CC(C)C(=O)N1CCN(c2cc(S(=O)(=O)NC3(C#N)CC3)cn3c(-c4nnc(C(F)F)s4)ncc23)C[C@H]1CO [Example 222, (S)-N-(1-cyanocyclopropyl)-3-(5-(difluoromethyl)-1,3,4-thiadiazol-2-yl)-8-(3-(hydroxymethyl)-4-isobutyrylpiperazin-1-yl)imidazo[1,5-a]pyridine-6-sulfonamide]	2.09	1670		
CC(C)C(=O)N1CCN(c2cc(S(=O)(=O)NC3(C)COC3)cn3c(-c4nnc(C(F)(F)F)s4)ncc23)C[C@H]1C [Example 174, (R)-8-(4-isobutyryl-3-methylpiperazin-1-yl)-N-(3-methyloxetan-3-yl)-3-(5-(trifluoromethyl)-1,3,4-thiadiazol-2-yl)imidazo[1,5-a]pyridine-6-sulfonamide]	5.01	856		
CC1(NS(=O)(=O)c2cc(N3CCN(C(=O)C4CCOCC4)CC3)c3cnc(-c4nnc(C(F)(F)F)s4)n3c2)CC1 [Example 292, N-(1-methylcyclopropyl)-8-(4-(tetrahydro-2H-pyran-4-carbonyl)piperazin-1-yl)-3-(5-(trifluoromethyl)-1,3,4-thiadiazol-2-yl)imidazo[1,5-a]pyridine-6-sulfonamide]	4.57	40		
N#CC1(NS(=O)(=O)c2cc(N3CCN(C(=O)N4CCCC4)CC3)c3cnc(-c4nnc(C(F)(F)F)s4)n3c2)CC1 [Example 229, N-(1-cyanocyclopropyl)-8-(4-(pyrrolidine-1-carbonyl)piperazin-1-yl)-3-(5-(trifluoromethyl)-1,3,4-thiadiazol-2-yl)imidazo[1,5-a]pyridine-6-sulfonamide]	3.31	800		
CC(C)C(=O)N1CCN(c2cc(S(=O)(=O)NC3CC3)cn3c(-c4nnc(C(F)(F)F)s4)ncc23)CC1 [Example 210, N-cyclopropyl-8-(4-isobutyrylpiperazin-1-yl)-3-(5-(trifluoromethyl)-1,3,4-thiadiazol-2-yl)imidazo[1,5-a]pyridine-6-sulfonamide]	83.2	929		
N#CC1(NS(=O)(=O)c2cc(N3CCN(C(=O)C4(N)CC4)CC3)c3cnc(-c4nnc(C(F)(F)F)s4)n3c2)CC1 [Example 274, 8-(4-(1-aminocyclopropane-1-carbonyl)piperazin-1-yl)-N-(1-cyanocyclopropyl)-3-(5-(trifluoromethyl)-1,3,4-thiadiazol-2-yl)imidazo[1,5-a]pyridine-6-sulfonamide]	41.7	700		
CC(C)C(=O)N1CCN(c2cc(S(=O)(=O)NC3(C)CC(F)(F)C3)cn3c(-c4nnc(C(F)F)s4)ncc23)CC1 [Example 61, N-(3,3-difluoro-1-methylcyclobutyl)-3-(5-(difluoromethyl)-1,3,4-thiadiazol-2-yl)-8-(4-isobutyrylpiperazin-1-yl)imidazo[1,5-a]pyridine-6-sulfonamide]	121	> 30000	100 to 500	

Source: patent US20260258035A1, “FIVE-MEMBERED AND SIX-MEMBERED NITROGEN-CONTAINING COMPOUND, AND INTERMEDIATE, PREPARATION METHOD AND USE THEREOF” (HANGZHOU SYNRX THERAPEUTICS BIOMEDICAL TECHNOLOGY CO., LTD., priority 2022, published 2026)
